The values that follow come from ChEMBL document CHEMBL2150934, “Identification of a potent and metabolically stable series of fluorinated diphenylpyridylethanamine-based cholesteryl ester transfer protein inhibitors” (Bioorg Med Chem Lett, 2012).

A word on the AUC(0-t): it is the area under the concentration-time curve up to a stated or last time point. A high value points to more exposure.

Common to all, as to type: ADME, organism-based
A short description of data set [1]: AUC (0 to 8 hrs) in transgenic mouse expressing human CETP/apoB100 at 30 mg/kg, po. As to conditions: plasma. Also on record: time < 8 hr, dose 30 mg/kg, route oral.
Data set [2] is described as follows: Plasma concentration in transgenic mouse expressing human CETP/apoB100 at 30 mg/kg, po at 2 hrs. Also on record: dose 30 mg/kg, route oral.
A short description of data set [3]: Plasma concentration in transgenic mouse expressing human CETP/apoB100 at 30 mg/kg, po at 4 hrs. Also on record: dose 30 mg/kg, route oral.
A short description of data set [4]: Plasma concentration in transgenic mouse expressing human CETP/apoB100 at 30 mg/kg, po at 8 hrs. Also on record: dose 30 mg/kg, route oral.

Each structure is given as a SMILES string.

On to `O=C(N[C@@H]1CCC(F)(F)C1)N[C@@](Cc1ccccc1)(c1cc(F)cc(OC(F)(F)C(F)F)c1)c1ccc(Cl)cn1`, for which, in data set [1], the AUC(0-t) at 8 h worked out at 3.2 µM·h. Moreover, the concentration at 2 h in data set [2] was 1070 nM. The compound also came in with a concentration at 4 h in data set [3] of 249 nM. The concentration at 8 h in data set [4] worked out at 112 nM.
